# Assay results taken from patent US8101663B2, “Polymorphs of suberoylanilide hydroxamic acid” (Merck HDAC Research, LLC, priority 2002, dated 2012).
# Several values for one entry are separate records, joined by “and”; a condition that tells them apart may be missing. Equal entries are not always repeated.
# Columns and labels:
# [1] = tested on: murine erythroleukemia cells (MELC); conditions: without continuing drug exposure; cited from earlier work
# [2] = Serum plasma levels of SAHA after IV and oral dosing (HPLC assay, LCMS using a deuterated standard); type: in vivo, humans; conditions: human
# Method: Objectives: To define a safe daily oral regimen of SAHA that can be used in Phase II studies. In addition, the pharmacokinetic profile of the oral formulation of SAHA was be evaluated. The oral bioavailability of SAHA in humans in the fasting vs. non-fasting state and anti-tumor effects of treatment were also monitored. Additionally, the biological effects of SAHA on normal tissues and tumor cells were assessed and responses with respect to levels of histone acetylation were documented.
# Patients: Patients with histologically documented advanced stage, primary or metastatic adult solid tumors that are refractory to standard therapy or for which no curative standard therapy exists. Patients must have a Karnofsky Performance Status of ≧70%, and adequate hematologic, hepatic and renal function. Patients must be at least four weeks from any prior chemotherapy, radiation therapy or other investigational anticancer drugs.
# Dosing Schedule: On the first day, patients were first treated with 200 mg of intravenously-administered SAHA. Starting on the second day, patients were treated with daily doses of oral SAHA according to Table 1. Each cohort received a different dose of SAHA. “QD” indicates dosing once a day; “Q12 hours” indicates dosing twice a day. For example, patients in Cohort IV received […] of SAHA per day. Doses were administered to patients daily and continuously. Blood samples were taken on day one and on day 21 of oral treatment. Patients were taken off oral SAHA treatment due to disease progression, tumor regression, unacceptable side effects, or treatment with other therapies.
# Cmax is the maximum concentration of SAHA observed after administration. IV SAHA was administered at 200 mg infused over two hours. The oral SAHA was administered in a single capsule at 200 mg. Tables 2 and 3 summarize the results of an HPLC assay (LCMS using a deuterated standard) that quantitates the amount of SAHA in the blood plasma of the patients versus time, using acetylated histone-4 (α-AcH4) as a marker.
# [3] = Interim pharmacokinetic analysis of oral SAHA, dose escalation study; type: in vivo, patients
# Method: (§1) In another experiment, twenty-five patients with solid tumors have been enrolled onto arm A, thirteen patients with Hodgkin's or non-Hodgkin's lymphomas have been enrolled onto arm B, and one patient with acute leukemia and one patient with myelodysplastic syndrome have been enrolled onto arm C, as shown in Table 4.
# The interim pharmacokinetic analysis was based on 18 patients treated on the dose levels of 200 mg QD, 400 mg QD, and 400 mg BID. […] Overall, the fraction of AUCinf due to extrapolation was 1% or less.
# [4] = type: in vivo, patients; conditions: once a day, continuous
# Source text: as §1
# Among eleven patients treated in Cohort II, one patient experienced the DLT of grade 3 diarrhea and grade 3 dehydration during the first treatment cycle. Nine patients were entered into Cohort III. Two patients were inevaluable for the 28-day toxicity assessment because of early study termination due to rapid progression of disease. Of the seven remaining patients, five experienced DLT during the first treatment cycle: diarrhea/dehydration (n=1), fatigue/dehydration (n=1), anorexia (n=1), dehydration (n=1) and anorexia/dehydration (n=1). These five patients recovered in approximately one week after the study drug was held. They were subsequently dose reduced to 400 mg QD which appeared to be well tolerated. The median days on 400 mg BID for all patients in Cohort III was 21 days. […] Following protocol amendment, accrual was continued in cohort IV at a dose of 600 mg once a day. Of the seven patients enrolled onto cohort IV, two were inevaluable for the 28-day toxicity assessment because of early study termination due to rapid progression of disease. […]
# [5] = tested on: acetylated histones in peripheral mononuclear cells; assay: Histone acetylation in peripheral blood mononuclear cells after SAHA capsules (anti-acetylated histone H3 antibody); type: in vivo, patients; conditions: 400 mg per day dose level, preliminary analysis
# Method: Peripheral blood mononuclear cells were collected pre-therapy, immediately post-infusion and between 2-10 hours after oral ingestion of the SAHA capsules to assess the effect of SAHA on the extent of histone acetylation in a normal host cell. Histones were isolated and probed with anti-acetylated histone (H3) antibody followed by HRP-secondary antibody.
# [6] = tested on: solid tumors, Hodgkin's or non-Hodgkin's lymphomas, leukemia; assay: Anti-tumor response in patients on oral SAHA; type: in vivo
# Source text: as §1
# Thirteen patients continued treatment for 3-12 months with responding or stable disease: thyroid (n=3), sweat gland (n=1), renal (n=2), larynx (n=1), prostate (n=1), Hodgkin's lymphoma (n=2), non-Hodgkin's lymphoma (n=2), and leukemia (n=1).
# Six patients had tumor shrinkage on CT scans. Three of these six patients meet the criteria of partial response (one patient with metastatic laryngeal cancer and two patients with non-Hodgkin's lymphomas). These partial responses occurred at the dose levels of 400 mg BID (n=2) and 600 mg QD (n=1).
# [7] = tested on: carcinogen-induced (N-methylnitrosourea) mammary tumors; conditions: rats, SAHA in the diet over 130 days; cited from earlier work
# [8] = iv, 200 mg, Patient #1, IV, 200 mg infused over two hours
# [9] = iv, 200 mg, Patient #2, IV, 200 mg infused over two hours
# [10] = po, 200 mg, Patient #1, oral (fasting), single capsule 200 mg
# [11] = po, 200 mg, Patient #1, oral (nonfasting), single capsule 200 mg
# [12] = po, 200 mg, Patient #2, oral (fasting), single capsule 200 mg
# [13] = po, 200 mg, Patient #2, oral (nonfasting), single capsule 200 mg
smiles,measurement,setting,value
"CC(=O)NCCCCCCNC(C)=O [HMBA, N,N′-hexamethylene bisacetamide]",Minimum duration of continuous exposure required to induce differentiation in a substantial portion (>20%) of the population,[1],about 36 hours
"O=C(CCCCCCC(=O)Nc1ccccc1)NO [SAHA, suberoylanilide hydroxamic acid]",half-life,"[2]; Patient #2, oral (fasting), single capsule 200 mg",82 min
same,AUC,[2]; [8],2550 ng·h/mL
same,Cmax,[2]; [8],1330 ng/mL
same,half-life,[2]; [8],20 min
same,AUC,[2]; [9],1800 ng·h/mL
same,Cmax,[2]; [9],1000 ng/mL
same,half-life,[2]; [9],21 min
same,AUC,[2]; [10],417 ng·h/mL
same,Cmax,[2]; [10],225 ng/mL
same,half-life,[2]; [10],80 min
same,AUC,[2]; [11],983 ng·h/mL
same,Cmax,[2]; [11],328 ng/mL
same,half-life,[2]; [11],64 min
same,AUC,[2]; [12],1050 ng·h/mL
same,Cmax,[2]; [12],362 ng/mL
same,AUC,[2]; [13],998 ng·h/mL
same,Cmax,[2]; [13],302 ng/mL
same,half-life,[2]; [13],93 min
same,bioavailability,"[3]; human, plasma, calculated from the AUCinf values after the IV infusion and oral routes, read-out: Bioavailable fraction of SAHA",~48%
same,half-life,"[3]; human, plasma, oral, across dose groups 200 mg QD, 400 mg QD, 400 mg BID, fasting or with food, 18 patients, read-out: Mean estimates for apparent half-life",61 to 114 min
same,Cmax,"[3]; human, plasma, oral, dose levels 200 mg QD, 400 mg QD, 400 mg BID, 18 patients, read-out: Mean estimates of Cmax",233 ng/mL to 570 ng/mL and 880 nM to 2.3 µM
same,Dose dependence of mean estimates of Cmax and AUCinf,"[3]; oral, fasting or with food, 200 mg to 400 mg dose range",increased proportionally with dose
same,Maximally tolerated dose for once daily oral administration,[4],400 mg
same,Time after ingestion up to which increased accumulation of acetylated histones could be detected,[5],up to 10 hours
same,Patients meeting the criteria of partial response,"[6]; dose levels 400 mg BID (n=2) and 600 mg QD (n=1), laryngeal cancer, non-Hodgkin's lymphomas",Three
same,Patients with tumor shrinkage on CT scans,[6]; oral SAHA,Six
same,Patients who continued treatment for 3-12 months with responding or stable disease,"[6]; oral SAHA, 40 patients enrolled",Thirteen
same,Effect on development and continued growth of mammary tumors,[7],effective at inhibiting the development and continued growth
